Numbered stars: 1 amine (or outer) side, 2 acyl side, 3 side chain; on linkers, the order of the positions; unused ones are H or OH. Bridge positions count the residues as written; N and C are the ends. Square brackets hold non-standard residues; d marks the D form. Peptide text beside a SMILES is read from it. * marks the point of attachment. ξ: configuration not given here. DOTA = O=C(O)CN1CCN(CC(=O)O)CCN(CC(=O)*)CCN(CC(=O)O)CC1; Phe(4-SO3H) = N[C@@H](Cc1ccc(S(=O)(=O)O)cc1)C(=O)O; Tyr(3-I) = N[C@@H](Cc1ccc(O)c(I)c1)C(=O)O; Phe(3-Cl) = N[C@@H](Cc1cccc(Cl)c1)C(=O)O; Phe(4-Cl) = N[C@@H](Cc1ccc(Cl)cc1)C(=O)O; Arg(Me) = CNC(=N)NCCC[C@H](N)C(=O)O; X1 = O=C(CC1CCN([*:1])CC1)[*:2]; Lys(Me) = CNCCCC[C@H](N)C(=O)O; Tle = CC(C)(C)[C@H](N)C(=O)O; αMeS = C[C@](N)(CO)C(=O)O; Aib = CC(C)(N)C(=O)O; ξP = O=C(O)C1CCCN1
Tests used:
[1] = target: T1, PSMA-expressing C4-2 cells (Homo sapiens, UniProt Q04609); assay: FACS binding assay (competition with 50 nM PSM-0183); conditions: pIC50 category of FACS binding, C4-2 cells; read-out: pIC50 [C4-2] CAT (converted)
T1 construct: PSMA-expressing C4-2 cells (ATCC, Cat. No. CRL-3314) were cultured in RPMI-1640; host or cells: C4-2 cells
T1 sequence (Q04609 whole entry): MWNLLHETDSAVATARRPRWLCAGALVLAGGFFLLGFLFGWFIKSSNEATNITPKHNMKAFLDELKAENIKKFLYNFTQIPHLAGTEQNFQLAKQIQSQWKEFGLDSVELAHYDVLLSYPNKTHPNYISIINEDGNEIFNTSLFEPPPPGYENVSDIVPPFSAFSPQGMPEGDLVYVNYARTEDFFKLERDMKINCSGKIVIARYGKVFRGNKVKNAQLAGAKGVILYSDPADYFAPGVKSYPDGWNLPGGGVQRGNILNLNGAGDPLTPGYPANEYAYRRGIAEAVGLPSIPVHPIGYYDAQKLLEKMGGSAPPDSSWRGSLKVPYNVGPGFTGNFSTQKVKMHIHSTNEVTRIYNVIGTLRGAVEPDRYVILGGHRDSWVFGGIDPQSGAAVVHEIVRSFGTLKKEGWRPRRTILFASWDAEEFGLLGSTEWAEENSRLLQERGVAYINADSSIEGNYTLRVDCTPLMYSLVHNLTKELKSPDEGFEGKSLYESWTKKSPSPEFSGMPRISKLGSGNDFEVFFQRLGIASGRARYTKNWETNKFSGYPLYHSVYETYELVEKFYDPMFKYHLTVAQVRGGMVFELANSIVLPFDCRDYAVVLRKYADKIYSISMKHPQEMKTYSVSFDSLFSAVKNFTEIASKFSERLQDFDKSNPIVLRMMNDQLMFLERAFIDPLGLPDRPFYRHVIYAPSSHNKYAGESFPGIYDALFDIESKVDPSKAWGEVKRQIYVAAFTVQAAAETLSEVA
Method in brief: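 C4-2 cells were incubated 1 h at 4 °C with 50 nM AF488-labelled peptide PSM-0183 plus increasing test compound concentrations, then washed twice in ice-cold buffer. Median fluorescence in the AF488 channel was read by flow cytometry. IC50/pIC50 was derived by 4PL fitting of MFI versus concentration.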

[2] = target: T2, Fc-fusion protein of human PSMA (hPSMA-Fc) (Homo sapiens, UniProt Q04609); assay: Surface plasmon resonance assay (Biacore T200, single cycle kinetic); type: binding; conditions: pKD category for PSMA SPR activity assay, hPSMA-Fc, 25° C.; read-out: pKD CAT (converted)
T2 construct: purchased Acro Biosystems PSA-H5264
T2 sequence (Q04609 44-750 limits assumed): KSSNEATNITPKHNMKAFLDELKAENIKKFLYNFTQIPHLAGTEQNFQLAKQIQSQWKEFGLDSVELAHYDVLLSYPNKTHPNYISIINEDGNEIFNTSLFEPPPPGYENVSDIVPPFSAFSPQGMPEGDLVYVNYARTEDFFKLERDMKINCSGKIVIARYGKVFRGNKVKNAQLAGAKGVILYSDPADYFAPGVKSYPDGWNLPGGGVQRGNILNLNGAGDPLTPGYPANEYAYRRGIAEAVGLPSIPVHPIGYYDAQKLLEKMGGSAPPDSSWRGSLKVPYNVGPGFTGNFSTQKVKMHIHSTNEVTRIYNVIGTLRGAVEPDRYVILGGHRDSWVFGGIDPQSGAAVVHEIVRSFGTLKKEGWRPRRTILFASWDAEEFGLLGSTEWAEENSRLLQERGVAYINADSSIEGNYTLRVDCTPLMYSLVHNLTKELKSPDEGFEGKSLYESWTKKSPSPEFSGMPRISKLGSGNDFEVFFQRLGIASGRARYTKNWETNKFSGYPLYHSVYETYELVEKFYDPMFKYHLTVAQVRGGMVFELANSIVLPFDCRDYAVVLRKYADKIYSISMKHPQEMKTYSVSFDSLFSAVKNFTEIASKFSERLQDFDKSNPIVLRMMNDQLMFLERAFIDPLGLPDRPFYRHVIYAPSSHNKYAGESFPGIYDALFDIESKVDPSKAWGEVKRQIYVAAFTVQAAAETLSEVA
Method in brief: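 hPSMA-Fc was captured (~1000 RU) on an Fc-binding-peptide CM5 chip, and compounds were run in single cycle kinetic mode at 25° C in HBST with 0.1% DMSO. Double-blank-corrected sensorgrams were fitted to a 1:1 Langmuir model to give KD, reported as pKD.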

SMILES | IC50 [1] | Kd [2]
C[C@@H](O)[C@H](NC(=O)[C@@H](NC(=O)[C@@H]1CSSC[C@H](NC(=O)[C@H](Cc2ccc(Cl)cc2)NC(=O)C(C)(C)NC(=O)[C@@H](NC(=O)CC2CCN(C(=O)CN3CCN(CC(=O)O)CCN(CC(=O)O)CCN(CC(=O)O)CC3)CC2)[C@@H](C)O)C(=O)N[C@@H](CCCCN)C(=O)N[C@@H](CCCNC(=N)N)C(=O)N[C@@](C)(CO)C(=O)N[C@@H](CC(N)=O)C(=O)N1)C(C)(C)C)C(N)=O [PSM-0382, DOTA-Cmp-Thr-Aib-Pcf-[Cys-Lys-Arg-Ams-Asn-Cys]-Tle-Thr-NH2] ({DOTA}-[X1]T[Aib][Phe(4-Cl)]CKR[αMeS]NC[Tle]T-NH2; disulfide 5-10) | < 200 nM | < 12.6 nM
CC(=O)N[C@H](C(=O)NC(C)(C)C(=O)N[C@@H](Cc1ccccc1)C(=O)N[C@H]1CSSC[C@@H](C(=O)N[C@H](C(=O)N[C@H](C(N)=O)[C@@H](C)O)C(C)(C)C)NC(=O)[C@H](CC(N)=O)NC(=O)[C@H](CCCCNC(=O)CN2CCN(CC(=O)O)CCN(CC(=O)O)CCN(CC(=O)O)CC2)NC(=O)[C@H](CCC(N)=O)NC(=O)[C@H](CCCCN)NC1=O)[C@@H](C)O [PSM-0385, Ac-Thr-Aib-Pho-[Cys-Lys-Gln-Lys(DOTA)-Asn-Cys]-Tle-Thr-NH2] (Ac-T[Aib]FCKQK(DOTA)NC[Tle]T-NH2; disulfide 4-9) | 200 to 1260 nM | 126 to 501 nM
C[C@@H](O)[C@H](NC(=O)[C@@H](NC(=O)[C@@H]1CSSC[C@H](NC(=O)[C@H](Cc2ccc(S(=O)(=O)O)cc2)NC(=O)C(C)(C)NC(=O)[C@@H](NC(=O)CC2CCN(C(=O)CN3CCN(CC(=O)O)CCN(CC(=O)O)CCN(CC(=O)O)CC3)CC2)[C@@H](C)O)C(=O)N[C@@H](CCCCN)C(=O)N[C@@H](CCCNC(=N)N)C(=O)NC(C)(C)C(=O)N[C@@H](CC(N)=O)C(=O)N1)C(C)(C)C)C(N)=O [PSM-0386, DOTA-Cmp-Thr-Aib-Fso-[Cys-Lys-Arg-Aib-Asn-Cys]-Tle-Thr-NH2] ({DOTA}-[X1]T[Aib][Phe(4-SO3H)]CKR[Aib]NC[Tle]T-NH2; disulfide 5-10) | > 3160 nM | > 501 nM
CC(=O)N[C@H](C(=O)NC(C)(C)C(=O)N[C@@H](Cc1ccccc1)C(=O)N[C@H]1CSSC[C@@H](C(=O)N[C@H](C(=O)N2CCCC2C(N)=O)C(C)(C)C)NC(=O)[C@H](CC(N)=O)NC(=O)C(C)(C)NC(=O)[C@H](CCCNC(=N)N)NC(=O)[C@H](CCCCN)NC1=O)[C@@H](C)O (stereo partly drawn) [PSM-0388, Ac-Thr-Aib-Phe-[Cys-Lys-Arg-Aib-Asn-Cys]-Tle-Pro-NH2] (Ac-T[Aib]FCKR[Aib]NC[Tle][ξP]-NH2; disulfide 4-9) | < 200 nM | < 12.6 nM
CCCC[C@H](NC(=O)[C@@H]1CSSC[C@H](NC(=O)[C@H](Cc2ccccc2)NC(=O)[C@H](C)NC(=O)[C@@H](NC(C)=O)[C@@H](C)O)C(=O)N[C@@H](CCCCN)C(=O)N[C@@H](CCCNC(=N)N)C(=O)N[C@@H](C)C(=O)N[C@@H](CC(N)=O)C(=O)N1)C(=O)N[C@H](C(=O)N[C@H](CC(=O)O)C(N)=O)[C@@H](C)O [PSM-0389, Ac-Thr-Ala-Phe-[Cys-Lys-Arg-Ala-Asn-Cys]-Nle-Thr-asp-NH2] | < 200 nM | 12.6 to 126 nM

Further lines, results first:

IC50 [1] | Kd [2] | SMILES
< 200 nM | < 12.6 nM | CC(=O)N[C@H](C(=O)NC(C)(C)C(=O)N[C@@H](Cc1cccc(Cl)c1)C(=O)N[C@H]1CSSC[C@@H](C(=O)N[C@H](C(=O)N[C@H](C(=O)N[C@@H](CC(=O)O)C(N)=O)[C@@H](C)O)C(C)(C)C)NC(=O)[C@H](CC(N)=O)NC(=O)C(C)(C)NC(=O)[C@H](CCCNC(=N)N)NC(=O)[C@H](CCCCN)NC1=O)[C@@H](C)O [PSM-0383, Ac-Thr-Aib-Mcf-[Cys-Lys-Arg-Aib-Asn-Cys]-Tle-Thr-Asp-NH2] (Ac-T[Aib][Phe(3-Cl)]CKR[Aib]NC[Tle]TD-NH2; disulfide 4-9)
> 3160 nM | > 501 nM | CNCCCC[C@@H]1NC(=O)[C@@H](NC(=O)[C@H](Cc2ccc(O)c(I)c2)NC(=O)C(C)(C)NC(=O)[C@@H](NC(C)=O)[C@@H](C)O)CSSC[C@@H](C(=O)N[C@H](C(=O)N[C@H](C(N)=O)[C@@H](C)O)C(C)(C)C)NC(=O)[C@H](CC(N)=O)NC(=O)C(C)(C)NC(=O)[C@H](CCCNC(=N)NC)NC1=O [PSM-0387, Ac-Thr-Aib-Miy-[Cys-Lys(Me)-Arg(Me)-Aib-Asn-Cys]-Tle-Thr-NH2] (Ac-T[Aib][Tyr(3-I)]C[Lys(Me)][Arg(Me)][Aib]NC[Tle]T-NH2; disulfide 4-9)

Source: patent US20260083865A1, “PROSTATE SPECIFIC MEMBRANE ANTIGEN (PSMA) LIGANDS AND USE THEREOF” (priority 2022, published 2026)
